Consider 14 molecules from patent US10130631B2, “CML therapeutic agents with reduced drug-resistance and side-effect comprising 1,6-disubstituted indole compounds” (KOREA INSTITUTE OF SCIENCE AND TECHNOLOGY, priority 2016, dated 2018).

Common to all, as to type: cell-based
One assay deals with Parental Ba/F3. In words: Proliferation inhibitory activity, parental Ba/F3. The note with it: Mus musculus, BaF3; parental Ba/F3 cell line. Here is the method:
(§1) The GI50 value was calculated by measuring the inhibitory effect on the proliferation of the compounds of the present invention in parental Ba/F3, wt-Bcr-Abl Ba/F3, T315I-Bcr-Abl Ba/F3 and VEGFR2 Ba/F3 cell lines.

A further assay relates to wt-Bcr-Abl Ba/F3. The assay can be described thus: Proliferation inhibitory activity, wt-Bcr-Abl Ba/F3. The note with it: for GI50: Mus musculus, BaF3, wt-Bcr-Abl Ba/F3 cell line; for inhibitory activity against wt-Bcr-Abl (in words): summary of Table 1. How it is done: as §1
In a further assay the test system is T315I-Bcr-Abl Ba/F3. The assay can be described thus: Proliferation inhibitory activity, T315I-Bcr-Abl Ba/F3. As to conditions: for GI50: Mus musculus, BaF3, T315I-Bcr-Abl Ba/F3 cell line; for inhibitory activity against T315I-Bcr-Abl (in words): summary of Table 1. Here is the method: as §1
The test system of a further assay is VEGFR2 Ba/F3. The assay can be described thus: Proliferation inhibitory activity, VEGFR2 Ba/F3. As to conditions: for GI50: Mus musculus, BaF3, VEGFR2 Ba/F3 cell line; for inhibitory activity against VEGFR2 kinase (in words): summary of Table 1. How it is done:
as §1

Bounds are passed on as bounds.

Take `Cc1cn(-c2cc(C(=O)Nc3ccc(C)c(-c4ccc5ccn(-c6cc(N)ncn6)c5c4)c3)cc(C(F)(F)F)c2)cn1` [Compound No. 1]: the GI50 (in general, the concentration that inhibits growth by half) in the assay with Parental Ba/F3 lay in the range of 300 to 3000 nM. Further, in the assay with wt-Bcr-Abl Ba/F3, the GI50 fell in the range of 300 to 3000 nM and the “inhibitory activity against wt-Bcr-Abl (in words)” value is “have a wt-Bcr-Abl inhibitory activity”. In the assay with T315I-Bcr-Abl Ba/F3, the GI50 was less than 300 nM and the “inhibitory activity against T315I-Bcr-Abl (in words)” value is on record as “strong inhibitory activity”. For the same molecule, in the assay on VEGFR2 Ba/F3, the GI50 was more than 3000 nM and the “inhibitory activity against VEGFR2 kinase (in words)” value is “does not exhibit any inhibitory activity”.

As to `Cc1ccc(NC(=O)c2cc(N3CCC(O)CC3)cc(C(F)(F)F)c2)cc1-c1ccc2ccn(-c3cc(N)ncn3)c2c1` [Compound No. 2], the GI50 was more than 3000 nM in the assay on Parental Ba/F3, more than 3000 nM in the assay on wt-Bcr-Abl Ba/F3, less than 300 nM with T315I-Bcr-Abl Ba/F3 and more than 3000 nM in the assay with VEGFR2 Ba/F3.

For the molecule `Cc1ccc(NC(=O)c2cc(N3CCOCC3)cc(C(F)(F)F)c2)cc1-c1ccc2ccn(-c3cc(N)ncn3)c2c1` [Compound No. 3], the concentration for 50% growth inhibition (GI50) in the assay with Parental Ba/F3 is more than 3000 nM; in the assay on wt-Bcr-Abl Ba/F3, more than 3000 nM; with T315I-Bcr-Abl Ba/F3 it was less than 300 nM; with VEGFR2 Ba/F3 it was more than 3000 nM.

Consider `Cc1ccc(NC(=O)c2ccc(N3CCN(C)CC3)c(C(F)(F)F)c2)cc1-c1ccc2ccn(-c3cc(N)ncn3)c2c1` [Compound No. 5], for which the GI50 was 300 to 3000 nM with Parental Ba/F3, 300 to 3000 nM in the assay with wt-Bcr-Abl Ba/F3, less than 300 nM with T315I-Bcr-Abl Ba/F3 and more than 3000 nM in the assay on VEGFR2 Ba/F3. The “inhibitory activity against wt-Bcr-Abl (in words)” value in the assay with wt-Bcr-Abl Ba/F3 is given as “have a wt-Bcr-Abl inhibitory activity”. Besides, in the assay on T315I-Bcr-Abl Ba/F3, the “inhibitory activity against T315I-Bcr-Abl (in words)” value is recorded as “strong inhibitory activity”. The “inhibitory activity against VEGFR2 kinase (in words)” value in the assay on VEGFR2 Ba/F3 is listed as “does not exhibit any inhibitory activity”.

For `Cc1cn(-c2cc(C(=O)Nc3cccc(-c4ccc5ccn(-c6cc(N)ncn6)c5c4)c3)cc(C(F)(F)F)c2)cn1` [Compound No. 7, N-(3-(1-(6-aminopyrimidine-4-yl)-1H-indole-6-yl)phenyl)-3-(4-methyl-1H-imidazole-1-yl)-5-(trifluoromethyl)benzamide], the GI50 was more than 3000 nM in the assay on Parental Ba/F3, more than 3000 nM with wt-Bcr-Abl Ba/F3, 300 to 3000 nM with T315I-Bcr-Abl Ba/F3 and more than 3000 nM in the assay on VEGFR2 Ba/F3.

`Nc1cc(-n2ccc3ccc(-c4cccc(NC(=O)c5cc(N6CCOCC6)cc(C(F)(F)F)c5)c4)cc32)ncn1` [Compound No. 8, N-(3-(1-(6-aminopyrimidine-4-yl)-1H-indole-6-yl)phenyl)-3-morpholino-5-(trifluoromethyl)benzamide]: the GI50 in the assay on Parental Ba/F3, in the assay with wt-Bcr-Abl Ba/F3, in the assay on T315I-Bcr-Abl Ba/F3 and with VEGFR2 Ba/F3 was more than 3000 nM each time.

On to `COc1ccccc1NC(=O)Nc1ccc(C)c(-c2ccc3ccn(-c4cc(N)ncn4)c3c2)c1` [Compound No. 9, 1-(3-(1-(6-aminopyrimidine-4-yl)-1H-indole-6-yl)-4-methylphenyl)-3-(2-methoxyphenyl) urea], for which the GI50 in the assay on Parental Ba/F3, in the assay with wt-Bcr-Abl Ba/F3, with T315I-Bcr-Abl Ba/F3 and in the assay on VEGFR2 Ba/F3 was more than 3000 nM each time.

For `COc1ccccc1NC(=O)Nc1cccc(-c2ccc3ccn(-c4ncnc5[nH]ccc45)c3c2)c1` [Compound No. 10, 1-(3-(1-(7H-pyrrolo[2,3-d]pyrimidine-4-yl)-1H-indole-6-yl)phenyl)-3-(2-methoxyphenyl)urea], the GI50 in the assay on Parental Ba/F3, in the assay on wt-Bcr-Abl Ba/F3, in the assay on T315I-Bcr-Abl Ba/F3 and in the assay with VEGFR2 Ba/F3 was more than 3000 nM each time.

For the molecule `Cc1cn(-c2cc(C(=O)Nc3ccc(C)c(-c4ccc5ccn(-c6ncnc7[nH]ccc67)c5c4)c3)cc(C(F)(F)F)c2)cn1` [Compound No. 11], in the assay with Parental Ba/F3, the GI50 was 300 to 3000 nM. In the assay on wt-Bcr-Abl Ba/F3, the GI50 was less than 300 nM and the “inhibitory activity against wt-Bcr-Abl (in words)” value was “have a wt-Bcr-Abl inhibitory activity”. In the assay with T315I-Bcr-Abl Ba/F3, the GI50 was less than 300 nM and the “inhibitory activity against T315I-Bcr-Abl (in words)” value was “strong inhibitory activity”. For the same molecule, in the assay on VEGFR2 Ba/F3, the GI50 is more than 3000 nM and the “inhibitory activity against VEGFR2 kinase (in words)” value is reported as “does not exhibit any inhibitory activity”.

For the molecule `Cc1ccc(NC(=O)c2cc(N3CCC(O)CC3)cc(C(F)(F)F)c2)cc1-c1ccc2ccn(-c3ncnc4[nH]ccc34)c2c1` [Compound No. 12, N-(3-(1-(7H-pyrrolo[2,3-d]pyrimidine-4-yl)-1H-indole-6-yl)-4-methylphenyl)-3-(4-hydroxypiperidine-1-yl)-5-(trifluoromethyl)benzamide], the GI50 was more than 3000 nM in the assay with Parental Ba/F3, more than 3000 nM in the assay on wt-Bcr-Abl Ba/F3, 300 to 3000 nM in the assay with T315I-Bcr-Abl Ba/F3 and more than 3000 nM in the assay with VEGFR2 Ba/F3.

Regarding `Cc1ccc(NC(=O)c2cc(N3CCOCC3)cc(C(F)(F)F)c2)cc1-c1ccc2ccn(-c3ncnc4[nH]ccc34)c2c1` [Compound No. 13, N-(3-(1-(7H-pyrrolo[2,3-d]pyrimidine-4-yl)-1H-indole-6-yl)-4-methylphenyl)-3-morpholino-5-(trifluoromethyl)benzamide], the GI50 in the assay on Parental Ba/F3 was more than 3000 nM; in the assay with wt-Bcr-Abl Ba/F3, 300 to 3000 nM; in the assay on T315I-Bcr-Abl Ba/F3, 300 to 3000 nM; in the assay on VEGFR2 Ba/F3, more than 3000 nM.

For the molecule `Cc1ccc(NC(=O)c2cc(N3CCN(C)CC3)cc(C(F)(F)F)c2)cc1-c1ccc2ccn(-c3ncnc4[nH]ccc34)c2c1` [Compound No. 14, N-(3-(1-(7H-pyrrolo[2,3-d]pyrimidine-4-yl)-1H-indole-6-yl)-4-methylphenyl)-3-(4-methylpiperazine-1-yl)-5-(trifluoromethyl)benzamide], the GI50 in the assay with Parental Ba/F3 is 300 to 3000 nM; with wt-Bcr-Abl Ba/F3, 300 to 3000 nM; with T315I-Bcr-Abl Ba/F3, less than 300 nM; with VEGFR2 Ba/F3 it was 300 to 3000 nM.

For `Cc1ccc(NC(=O)c2ccc(N3CCN(C)CC3)c(C(F)(F)F)c2)cc1-c1ccc2ccn(-c3ncnc4[nH]ccc34)c2c1` [Compound No. 15, N-(3-(1-(7H-pyrrolo[2,3-d]pyrimidine-4-yl)-1H-indole-6-yl)-4-methylphenyl)-4-(4-methylpiperazine-1-yl)-5-(trifluoromethyl)benzamide], the GI50 with Parental Ba/F3 is 300 to 3000 nM; with wt-Bcr-Abl Ba/F3 it was 300 to 3000 nM; with T315I-Bcr-Abl Ba/F3 it was less than 300 nM; in the assay on VEGFR2 Ba/F3 it was 300 to 3000 nM.

In the case of `Cc1ccc(NC(=O)c2ccc(CN3CCN(C)CC3)c(C(F)(F)F)c2)cc1-c1ccc2ccn(-c3ncnc4[nH]ccc34)c2c1` [Compound No. 16, N-(3-(1-(7H-pyrrolo[2,3-d]pyrimidine-4-yl)-1H-indole-6-yl)-4-methylphenyl)-4-((4-methylpiperazine-1-yl)methyl)-3-(trifluoromethyl)benzamide], the GI50 is 300 to 3000 nM with Parental Ba/F3, less than 300 nM with wt-Bcr-Abl Ba/F3, less than 300 nM in the assay on T315I-Bcr-Abl Ba/F3 and 300 to 3000 nM in the assay on VEGFR2 Ba/F3.
